Consider 1 compound from patent US20060093658A1 (priority 2004, published 2006).

Data set [1] can be described thus: in vivo. The settings on record: hairless, guinea pig.
Data set [2] deals with plasma coagulation Factor VIII. As to the kind of experiment: pharmacodynamic effect on plasma coagulation Factor VIII levels (one-stage clotting assay). The data set is classed as in vivo, human. The method, then:
(§1) Methods: This was a 2-part study in healthy human volunteers (18-45 years). […] All treatments were administered 30 minutes after a subcutaneous injection of low-molecular weight heparin to counteract the increase in clotting factors in the healthy volunteer population. […] Topical effects were also examined. Pain upon patch application was scored and compared to subcutaneous saline injection with a 27-gauge needle. […] Bleeding assessment (visual and photographic) were measured 2 min post-system removal. […] Routine safely assessments were also included, including the following: solicitation of Adverse Events (AEs), measurement of vital signs, measurement of serum sodium concentration and platelets, and measurement of urine output, specific gravity and osmolality.

The conditions of data set [3]: cited from earlier work.
Another data set is described as follows: clinical. The settings on record: both, human, in vivo, iv. The method, then:
as §1
Data analysis included a review of PK parameters (Cmax, Tmax, elimination rate constant, apparent half-life, and AUCinf) and were estimated using standard methodology. […] The intra-individual (sigma) and inter-individual (CV %) variabilities were estimated using additive+proportional and log normal distributions, respectively. Model performance between hierarchical models was assessed both numerically (Objective Function, OBJ) and graphically (comparison of the predicted and observed data). A reduction of^3 6.7 units in OBJ per additional structural model parameter was considered significant at p<0.01 on the x^2 distribution.

Data set [4] in a line: in vivo. The note with it: hairless, guinea pig. On the procedure:
The retainer ring containing the patch was loaded onto an impact applicator, and the patch was applied to the prepared skin site with an impact energy of 0.26 J, delivered in less than 10 ms.
Efficiency of delivery was calculated as the percentage delivered of the total dose coated onto the array. For mass balance calculations, drug residuals left on the skin and on the array were also taken into account.
The source holds these as a separate data set.

A short description of data set [5]: skin response / tolerability of microneedle patches. The data set is classed as in vivo. The source says:
Following system removal, skin sites were visually assessed for signs of erythema, edema, bleeding, and infection until the sites returned to normal.

Setting [6] is: desmopressin-coated microneedle patches.

`NC(=O)CC[C@@H]1NC(=O)[C@H](Cc2ccccc2)NC(=O)[C@H](Cc2ccc(O)cc2)NC(=O)CCSSC[C@@H](C(=O)N2CCC[C@H]2C(=O)N[C@H](CCCN=C(N)N)C(=O)NCC(N)=O)NC(=O)[C@H](CC(N)=O)NC1=O` [desmopressin]: the AUC in the data set “in vivo [1]” (82 ug) turned out to be 76 ng·h/mL; in “in vivo [1]” (iv, 11 ug), 50.5 ng·h/mL. This compound displayed a Cmax in the data set “in vivo [1]” (82 ug) of 49 ng/mL. Also, the Tmax in “in vivo [1]” (outbred euthymic (ibm:GOHI-hr and IAF:HA-HO-hr), 82 ug) is 1 h; in the data set “clinical”, 0.26 h; in the data set “clinical” (15 ug, time of peak concentration), 0.25 h; in “clinical” (Tmax), 0.5 h. In addition, the “Factor VIII value” in data set [2] (IV-15 ug) was 280 % of baseline value; in data set [2] (IV-30 ug) it was 321 % of baseline value. For the same compound, the “pharmacological activity of absorbed desmopressin (factor VIII measurements)” value in data set [2] (desmopressin absorbed after MFLX / IV) is “pharmacologically active”. The nasal bioavailability in data set [3] (human, in vivo, inhaled or intranasal) is reported as 3.4%. The oral bioavailability in data set [3] (oral administration) is on record as 0.1%. In the data set “clinical”, the t1/2 is given as 3.8 ± 1.25 h. The figures for the half-life in “clinical” (mean half-life) and in the data set “clinical” (t1/2) were 3.1 to 3.8 h and 3.1 ± 0.38 h, respectively. In addition, in the data set “in vivo [4]” (iv, 20 ug), the dose excreted worked out at 71%. Further, the bioavailability in the data set “in vivo [4]” (outbred euthymic (ibm:GOHI-hr and IAF:HA-HO-hr)) turned out to be 85%. The “tolerability of the desmopressin-coated microneedle patches” value in data set [5] (5 or 15 min wear) was “well tolerated”. The “erythema following removal of the systems” value in data set [5] (setting [6]) is “only mild erythema”. Also, the “signs of edema, bleeding, or infection” value in data set [5] (setting [6]) is given as “no signs of edema, bleeding, or infection”. For the same compound, the “time to resolution of erythema” value in data set [5] (setting [6]) is reported as at most 24 h.
